Results on one compound are retold here after publication doi:10.1101/2023.10.03.560722, “Drug Discovery in Low Data Regimes: Leveraging a Computational Pipeline for the Discovery of Novel SARS-CoV-2 Nsp14-MTase Inhibitors” (bioRxiv, 2024).

Holding throughout (type): biochemical
The target of assay [1] is T1, PRMT7 (protein arginine methyltransferase 7) (Homo sapiens, UniProt Q9NVM4).
T1 sequence (Q9NVM4 1-692): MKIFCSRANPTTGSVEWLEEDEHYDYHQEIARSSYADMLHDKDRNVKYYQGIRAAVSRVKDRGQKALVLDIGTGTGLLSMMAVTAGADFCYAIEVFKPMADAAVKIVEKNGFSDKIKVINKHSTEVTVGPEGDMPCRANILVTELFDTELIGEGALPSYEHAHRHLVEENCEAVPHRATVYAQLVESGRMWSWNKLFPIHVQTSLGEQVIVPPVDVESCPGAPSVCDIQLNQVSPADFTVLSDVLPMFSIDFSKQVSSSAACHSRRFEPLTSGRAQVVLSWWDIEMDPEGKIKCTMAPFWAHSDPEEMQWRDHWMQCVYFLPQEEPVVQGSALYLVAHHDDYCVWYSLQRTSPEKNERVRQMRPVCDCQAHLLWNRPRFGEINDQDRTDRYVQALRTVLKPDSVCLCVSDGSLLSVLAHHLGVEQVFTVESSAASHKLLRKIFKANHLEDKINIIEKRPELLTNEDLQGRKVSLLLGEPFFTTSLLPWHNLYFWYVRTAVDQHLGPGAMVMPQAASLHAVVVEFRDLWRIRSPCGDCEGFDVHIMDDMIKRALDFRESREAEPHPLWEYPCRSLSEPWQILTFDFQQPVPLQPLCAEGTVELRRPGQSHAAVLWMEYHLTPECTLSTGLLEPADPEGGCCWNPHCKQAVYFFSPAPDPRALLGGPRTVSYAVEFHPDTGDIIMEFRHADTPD
Put plainly: human MTase selectivity panel and IC50.

Assay [2] deals with T2, SUV39H1 (Homo sapiens, UniProt O43463).
T2 sequence (O43463 1-412): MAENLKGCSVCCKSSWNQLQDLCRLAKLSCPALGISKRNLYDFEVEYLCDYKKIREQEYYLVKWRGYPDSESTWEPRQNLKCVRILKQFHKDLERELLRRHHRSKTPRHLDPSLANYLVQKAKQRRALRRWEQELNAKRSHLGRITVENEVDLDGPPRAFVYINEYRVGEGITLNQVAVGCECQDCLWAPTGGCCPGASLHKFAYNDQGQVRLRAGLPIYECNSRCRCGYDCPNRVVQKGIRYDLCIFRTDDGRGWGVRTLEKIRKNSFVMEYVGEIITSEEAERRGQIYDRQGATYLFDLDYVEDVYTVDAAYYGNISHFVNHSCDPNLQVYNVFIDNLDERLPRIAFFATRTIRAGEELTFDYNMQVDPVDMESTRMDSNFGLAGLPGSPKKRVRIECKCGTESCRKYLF
Put plainly: human MTase selectivity panel.

In assay [3] the target is T3, G9a (Homo sapiens, UniProt Q96KQ7).
T3 sequence (Q96KQ7 1-1210): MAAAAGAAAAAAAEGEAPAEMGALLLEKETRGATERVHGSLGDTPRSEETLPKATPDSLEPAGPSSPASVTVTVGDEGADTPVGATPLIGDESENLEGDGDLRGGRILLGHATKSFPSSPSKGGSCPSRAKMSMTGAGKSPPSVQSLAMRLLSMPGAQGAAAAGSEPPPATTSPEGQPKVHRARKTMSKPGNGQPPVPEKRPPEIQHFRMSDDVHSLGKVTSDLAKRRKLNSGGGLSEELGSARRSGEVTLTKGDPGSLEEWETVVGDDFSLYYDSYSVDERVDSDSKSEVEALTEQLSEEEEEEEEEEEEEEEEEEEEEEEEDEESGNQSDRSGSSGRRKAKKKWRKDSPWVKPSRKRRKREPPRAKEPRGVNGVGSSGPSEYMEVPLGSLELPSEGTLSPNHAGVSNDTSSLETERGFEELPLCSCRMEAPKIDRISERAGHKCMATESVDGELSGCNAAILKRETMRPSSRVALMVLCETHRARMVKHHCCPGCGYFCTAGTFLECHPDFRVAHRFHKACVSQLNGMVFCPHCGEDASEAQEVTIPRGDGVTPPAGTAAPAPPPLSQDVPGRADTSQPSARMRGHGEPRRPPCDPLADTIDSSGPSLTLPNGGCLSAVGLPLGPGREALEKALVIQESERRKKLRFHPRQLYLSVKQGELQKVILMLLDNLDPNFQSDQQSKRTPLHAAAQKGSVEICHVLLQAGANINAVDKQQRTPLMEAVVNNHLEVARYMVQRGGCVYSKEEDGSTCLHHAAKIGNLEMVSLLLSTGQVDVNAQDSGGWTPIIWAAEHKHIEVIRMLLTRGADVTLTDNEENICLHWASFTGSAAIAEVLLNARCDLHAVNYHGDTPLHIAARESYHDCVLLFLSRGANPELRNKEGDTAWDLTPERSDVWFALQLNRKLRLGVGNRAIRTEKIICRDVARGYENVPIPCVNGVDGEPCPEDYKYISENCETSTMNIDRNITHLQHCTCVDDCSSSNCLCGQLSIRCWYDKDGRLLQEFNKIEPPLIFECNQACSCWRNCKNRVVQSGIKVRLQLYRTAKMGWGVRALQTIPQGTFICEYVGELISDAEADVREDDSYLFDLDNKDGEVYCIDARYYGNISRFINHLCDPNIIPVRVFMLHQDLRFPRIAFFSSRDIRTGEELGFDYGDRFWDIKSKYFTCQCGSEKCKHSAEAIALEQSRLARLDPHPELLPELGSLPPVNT
Put plainly: human MTase selectivity panel.

For assay [4], the target named is DOT1L (Homo sapiens, UniProt Q8TEK3). Put plainly: human MTase selectivity panel.
DOT1L, sequence (Q8TEK3 whole entry): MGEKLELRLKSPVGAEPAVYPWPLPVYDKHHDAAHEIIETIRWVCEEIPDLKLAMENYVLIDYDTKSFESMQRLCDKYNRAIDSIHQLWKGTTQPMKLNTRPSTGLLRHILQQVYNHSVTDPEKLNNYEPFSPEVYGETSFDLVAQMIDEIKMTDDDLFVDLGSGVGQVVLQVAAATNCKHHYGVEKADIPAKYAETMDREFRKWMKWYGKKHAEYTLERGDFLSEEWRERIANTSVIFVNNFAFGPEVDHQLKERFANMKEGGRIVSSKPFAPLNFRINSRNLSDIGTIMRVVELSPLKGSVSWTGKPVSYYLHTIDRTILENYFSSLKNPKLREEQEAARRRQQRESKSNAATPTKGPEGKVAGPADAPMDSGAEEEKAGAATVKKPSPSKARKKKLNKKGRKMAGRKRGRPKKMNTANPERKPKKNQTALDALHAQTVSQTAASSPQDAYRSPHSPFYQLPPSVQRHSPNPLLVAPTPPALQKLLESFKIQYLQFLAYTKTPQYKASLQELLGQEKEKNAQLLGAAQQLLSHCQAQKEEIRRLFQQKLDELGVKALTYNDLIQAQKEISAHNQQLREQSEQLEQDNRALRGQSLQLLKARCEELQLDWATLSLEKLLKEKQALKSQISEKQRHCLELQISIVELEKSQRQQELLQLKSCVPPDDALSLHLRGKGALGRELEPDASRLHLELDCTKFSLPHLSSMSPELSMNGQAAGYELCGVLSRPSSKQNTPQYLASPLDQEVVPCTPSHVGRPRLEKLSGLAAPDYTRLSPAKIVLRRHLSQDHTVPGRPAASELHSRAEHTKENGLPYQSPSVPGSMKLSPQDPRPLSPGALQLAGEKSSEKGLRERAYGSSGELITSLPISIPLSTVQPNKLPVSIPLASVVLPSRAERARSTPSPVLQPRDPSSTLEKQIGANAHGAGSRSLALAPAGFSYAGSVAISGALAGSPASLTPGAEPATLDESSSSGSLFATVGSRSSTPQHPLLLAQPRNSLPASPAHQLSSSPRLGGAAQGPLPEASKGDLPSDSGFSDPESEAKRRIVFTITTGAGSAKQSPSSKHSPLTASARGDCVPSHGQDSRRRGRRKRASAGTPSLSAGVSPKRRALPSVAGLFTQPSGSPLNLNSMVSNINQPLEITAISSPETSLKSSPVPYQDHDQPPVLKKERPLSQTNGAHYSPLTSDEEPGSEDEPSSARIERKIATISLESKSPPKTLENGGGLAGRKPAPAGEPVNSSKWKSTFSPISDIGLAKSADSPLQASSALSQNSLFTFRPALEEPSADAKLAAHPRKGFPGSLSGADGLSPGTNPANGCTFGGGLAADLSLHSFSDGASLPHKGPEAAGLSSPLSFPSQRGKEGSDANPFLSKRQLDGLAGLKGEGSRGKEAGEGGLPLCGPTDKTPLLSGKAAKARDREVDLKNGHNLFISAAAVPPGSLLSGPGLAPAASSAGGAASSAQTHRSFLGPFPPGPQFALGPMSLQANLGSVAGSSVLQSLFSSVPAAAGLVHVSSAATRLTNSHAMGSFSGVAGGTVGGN
Assay [5] has as its target MLL1 (Homo sapiens, UniProt Q03164). Put plainly: human MTase selectivity panel.
Where [6] appears, read: average ± SD, read-out: Activity (%) at 10 µM Average.
The mark [7] stands for this setting: read-out: Activity (%) at 10 µM Replicate 1.
[8] abbreviates: read-out: Activity (%) at 10 µM Replicate 2.
Where [9] appears, read: read-out: Activity (%) at 10 µM Replicate 3.

By IC50 is commonly meant the concentration that gives 50% inhibition.

Like-named read-outs stand apart in the source and are kept apart here.

MLL1, sequence (Q9UBL3 whole entry): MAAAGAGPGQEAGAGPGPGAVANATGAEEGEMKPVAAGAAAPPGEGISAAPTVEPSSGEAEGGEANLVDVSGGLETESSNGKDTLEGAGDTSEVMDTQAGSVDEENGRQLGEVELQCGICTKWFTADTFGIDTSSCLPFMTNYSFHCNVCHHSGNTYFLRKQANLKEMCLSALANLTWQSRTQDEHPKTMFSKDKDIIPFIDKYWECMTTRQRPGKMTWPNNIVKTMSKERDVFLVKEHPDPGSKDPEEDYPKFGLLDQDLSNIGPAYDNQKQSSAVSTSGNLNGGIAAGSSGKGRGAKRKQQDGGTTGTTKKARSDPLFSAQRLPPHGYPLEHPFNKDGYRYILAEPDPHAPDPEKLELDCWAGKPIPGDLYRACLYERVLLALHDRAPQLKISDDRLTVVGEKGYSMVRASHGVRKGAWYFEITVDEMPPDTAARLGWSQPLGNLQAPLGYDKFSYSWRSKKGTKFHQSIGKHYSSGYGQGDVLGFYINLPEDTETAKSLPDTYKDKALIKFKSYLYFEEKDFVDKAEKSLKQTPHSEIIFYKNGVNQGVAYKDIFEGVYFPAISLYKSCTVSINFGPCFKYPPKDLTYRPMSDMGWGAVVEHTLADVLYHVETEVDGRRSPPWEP
MLL1, sequence (Q15291 whole entry, further chain): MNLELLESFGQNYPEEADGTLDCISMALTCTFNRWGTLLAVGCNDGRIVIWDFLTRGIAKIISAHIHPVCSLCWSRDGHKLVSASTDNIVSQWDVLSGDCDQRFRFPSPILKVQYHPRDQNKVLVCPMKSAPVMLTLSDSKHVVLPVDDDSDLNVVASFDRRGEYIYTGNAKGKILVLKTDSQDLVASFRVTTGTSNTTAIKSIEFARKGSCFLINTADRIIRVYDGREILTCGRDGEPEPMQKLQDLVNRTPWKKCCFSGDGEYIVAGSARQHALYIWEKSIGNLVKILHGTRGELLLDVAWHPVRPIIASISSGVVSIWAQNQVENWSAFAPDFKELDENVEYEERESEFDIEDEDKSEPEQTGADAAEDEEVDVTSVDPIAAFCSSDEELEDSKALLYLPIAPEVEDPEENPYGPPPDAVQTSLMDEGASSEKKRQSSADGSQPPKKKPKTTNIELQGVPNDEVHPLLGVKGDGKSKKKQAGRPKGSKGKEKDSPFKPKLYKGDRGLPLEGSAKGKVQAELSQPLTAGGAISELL
MLL1, sequence (Q03164 3745-3969): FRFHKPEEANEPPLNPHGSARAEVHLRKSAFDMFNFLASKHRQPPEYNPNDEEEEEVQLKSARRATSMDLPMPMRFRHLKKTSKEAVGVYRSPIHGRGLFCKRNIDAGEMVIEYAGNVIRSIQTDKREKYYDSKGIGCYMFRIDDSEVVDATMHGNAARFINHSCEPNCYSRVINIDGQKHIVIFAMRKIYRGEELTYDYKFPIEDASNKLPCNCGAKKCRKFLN

Compound `Nc1ncnc2c1ncn2[C@@H]1O[C@H](CSCc2ccc(Cl)cc2)[C@@H](O)[C@H]1O` [NSC620333] showed an IC50 in assay [1] (PRMT7) of 7 ± 1.5 µM. The activity at 10 µM was found to be 32 ± 3% in assay [1] (PRMT7, average ± SD, read-out: Activity (%) at 10 µM Average); 35% in assay [1] (PRMT7, read-out: Activity (%) at 10 µM Replicate 1); 29% in assay [1] (PRMT7, read-out: Activity (%) at 10 µM Replicate 2); 32% in assay [1] (PRMT7, read-out: Activity (%) at 10 µM Replicate 3); 96 ± 4% in assay [2] (setting [6]); 99% in assay [2] (setting [7]). The activity at 10 µM in assay [2] (setting [8]) was determined as 91%; in assay [2] (setting [9]), 97%; in assay [3] (setting [6]), 89 ± 9%; in assay [3] (setting [7]), 97%; in assay [3] (setting [8]), 79%; in assay [3] (setting [9]), 91%. The activity at 10 µM in assay [4] (setting [6]) is 93 ± 9%; in assay [4] (setting [7]), 103%; in assay [4] (setting [8]) it was 90%; in assay [4] (setting [9]) it was 86%; in assay [5] (setting [6]), 85 ± 2%; in assay [5] (setting [7]), 84%. In addition, the activity at 10 µM was found to be 87% in assay [5] (setting [8]) and 84% in assay [5] (setting [9]). Further, the “Hill Slope” value in assay [1] (PRMT7 IC50 curve) is listed as -1.9.
